{"source": "ChEMBL document CHEMBL1142224", "about": "“Mapping the elusive neonicotinoid binding site” (Proc Natl Acad Sci U S A, 2007)", "key": {"[1]": {"test": "Displacement of [3H]ACE from Aplysia AChBP expressed in HEK293S cells by scintillation proximity assay", "format": "cell-based"}, "[2]": {"test": "Displacement of [3H]EPI from Aplysia AChBP expressed in HEK293S cells by scintillation proximity assay", "format": "cell-based"}, "[3]": {"test": "Inhibition of [3H]1-((5-azido-6-chloropyridin-3-yl)methyl)-3-methyl-2-nitroguanidine incorporation into AchBP assessed as protection of photoaffinity labeling at 500 pmol", "parameters": "scale not given: the % may be the effect or the level left"}}}
{"smiles": "N=C1SCCN1Cc1ccc(Cl)nc1", "note": "[DESCYANOTHIACLOPRID]", "values": [{"measurement": "Ki", "setting": "[1]", "result": 10, "unit": "nM"}, {"measurement": "Ki", "setting": "[2]", "result": 8.5, "unit": "nM"}]}
{"smiles": "CN/C(=N\\[N+](=O)[O-])NCc1cnc(Cl)s1", "note": "[CLOTHIANIDINE]", "values": [{"measurement": "Ki", "setting": "[1]", "result": 808, "unit": "nM"}, {"measurement": "Ki", "setting": "[2]", "result": 574, "unit": "nM"}]}
{"smiles": "Clc1ccc(C2CC3CCC2N3)cn1", "note": "(racemic) [EPIBATIDINE]", "values": [{"measurement": "Ki", "setting": "[1]", "result": 14, "unit": "nM"}, {"measurement": "Ki", "setting": "[2]", "result": 8.6, "unit": "nM"}]}
{"smiles": "N#C/N=C1\\SCCN1Cc1ccc(Cl)nc1", "note": "[THIACLOPRID]", "values": [{"measurement": "Ki", "setting": "[1]", "result": 9.9, "unit": "nM"}, {"measurement": "Ki", "setting": "[2]", "result": 8.4, "unit": "nM"}]}
{"smiles": "N=C1NCCN1Cc1ccc(Cl)nc1", "note": "[DESNITROIMIDACLOPRID]", "values": [{"measurement": "Ki", "setting": "[1]", "result": 56, "unit": "nM"}, {"measurement": "Ki", "setting": "[2]", "result": 44, "unit": "nM"}]}
{"smiles": "C/C(=N\\C#N)N(C)Cc1ccc(Cl)nc1", "note": "[ACETAMIPRID]", "values": [{"measurement": "Ki", "setting": "[1]", "result": 41, "unit": "nM"}, {"measurement": "Ki", "setting": "[2]", "result": 19, "unit": "nM"}]}
{"smiles": "N#C/N=c1\\sccn1Cc1cnc(Cl)c(N=[N+]=[N-])c1", "values": [{"measurement": "Ki", "setting": "[1]", "result": 2.3, "unit": "nM"}, {"measurement": "Ki", "setting": "[2]", "result": 1.7, "unit": "nM"}]}
{"smiles": "O=[N+]([O-])/N=C1\\NCCN1Cc1ccc(Cl)nc1", "note": "[IMIDACLOPRID]", "values": [{"measurement": "Activity", "setting": "[3]", "result": 50, "unit": "%"}, {"measurement": "Ki", "setting": "[1]", "result": 267, "unit": "nM"}, {"measurement": "Ki", "setting": "[2]", "result": 180, "unit": "nM"}]}
{"smiles": "CN1CCC[C@H]1c1cccnc1", "note": "[NICOTINE]", "values": [{"measurement": "Ki", "setting": "[1]", "result": 415, "unit": "nM"}, {"measurement": "Ki", "setting": "[2]", "result": 260, "unit": "nM"}]}
{"smiles": "CCN(Cc1ccc(Cl)nc1)/C(=C/[N+](=O)[O-])NC", "note": "[NITENPYRAM]", "values": [{"measurement": "Ki", "setting": "[1]", "result": 335, "unit": "nM"}, {"measurement": "Ki", "setting": "[2]", "result": 180, "unit": "nM"}]}
